≈ marks a conversion by molar mass, not a printed value.
Assays:
[1] = Solubility test (equol concentration dissolved in water); assay type: physicochemical; details: thermodynamic from solid; 300 mg dried product A-1 or 10 mg equol in 10 mL water, stirred at room temperature 2 hours, 0.2-μm filtered; read-out: concentration of equol in the solution (solubility in water)
Experimental: The dried product A-1 containing an equol clathrate prepared in <<Preparation of Equol Clathrate>> described above was subjected to a solubility test. As a control, a solubility test was performed on equol (available from LC Laboratories) alone.
Specifically, solubility tests were conducted under the following conditions.
300 mg of the dried product A-1 containing an equol clathrate was weighed and mixed with 10 mL of water. Then, the mixture was stirred at room temperature for 2 hours. This liquid was filtered through a 0.2-μm filter, resulting in a solution B-1 of the dried product A-1 containing an equol clathrate. The equol concentration of the solution B-1 was analyzed.
Meanwhile, 10 mg of equol (available from LC Laboratories) was weighed and subjected to the same operation, resulting in a liquid C-1 containing equol alone. The concentration of equol dissolved in the solution C-1 was analyzed.

[2] = Pharmacokinetics (PK) analysis by oral administration in rats; assay type: in vivo, Crl:CD (SD) rats; details: single oral dose, rat plasma, 0.5% CMC suspension, equol clathrate 100 mg/kg, equol 6.3 mg/kg
Experimental: The equol clathrate A-1 prepared in <<Preparation of Equol Clathrate>> was subjected to pharmacokinetics (PK) analysis using 6-week-old Crl:CD (SD) rats by oral administration. As a control, pharmacokinetics (PK) analysis of equol (available from LC Laboratories) alone was also performed.
Specifically, the administered dose of the equol clathrate A-1 was 100 mg/kg, whereas the dose of equol (available from LC Laboratories) was 6.3 mg/kg, an amount considered to be equivalent to 100 mg/kg of the equol clathrate A-1.
The administered dose of the equol clathrate A-1 and the administered dose of equol were each administered as a single oral dose to 3 animals/group. The test substance used for the administration sample was suspended in 0.5% CMC aqueous solution, and the administered volume was 10 mL/kg.
PK was measured using plasma, and blood was collected at 0 min, 30 min, 1 h, 2 h, 6 h, 12 h, and 24 h. After 24 hours of blood collection, the rats were euthanized.
Note that, in Table 2, “Cmax” means maximum blood concentration, “Tmax” means time to reach Cmax, and “AUC0-24” means area.

Oc1ccc([C@H]2COc3cc(O)ccc3C2)cc1 [equol]
solubility at 2 h [1]: 100 µg/mL (≈ 413 µM) | Cmax ([2]; Crl:CD (SD), read-out: Cmax (maximum blood concentration)): 41.6 ng/mL | AUC0-24 (area) [2]: 363 ng·h/mL
